# Key:
# [1] = Metabolite profiles in plasma (UPLC, radioactivity detection, MS); assay type: in vivo, human; settings: for Mean (range) Circulating Radioactivity in Plasma Based on AUC0-24: 100 mg oral [14C] encorafenib; for Mean (range) Circulating Radioactivity in Plasma Based on AUC0-24 (%): M12.8 value is sum of M12.8 and M13.2
# Procedure: To the thawed plasma samples (1.5 mL plasma/ time points) two volumes of ice‐cold acetonitrile:ethanol:acetic acid (90:10:0.1, v/v) were added, followed by vortex mixing (10 min) and sonication (10 min). After centrifugation, the supernatants (4.2 mL) were evaporated to near dryness under a gentle stream of nitrogen on a TurboVap LV (Zymark Corp.). The residues were reconstituted in 80 μL of methanol:water:acetic acid (50:50:0.1, v/v) and 45 μL were injected into the ultra‐performance liquid chromatography (UPLC) system with off‐line radioactivity detection.
# Characterization and quantification of the metabolites of encorafenib in select human plasma and excreta samples were performed by the Department of DMPK (Drug Metabolism and Pharmacokinetics) at the Novartis Institutes for Biomedical Research (East Hanover, NJ, USA) using liquid chromatography (LC) coupled to radioactivity detectors and mass spectrometers (MS).
# The analytical system consisted of a Waters ACQUITY UPLC system (Waters), equipped with a Phenomenex Luna PFP column (3 μm, 4.6 × 150 mm) (Phenomenex) and a guard column of the same phase, both maintained at a temperature of 30°C. The mobile phases consisted of 10 mM ammonium acetate containing 0.1% formic acid (v/v) (solvent A) and CH3CN (solvent B). The total run time was 80 min. A linear gradient elution program was used with a flow rate of 1 mL/min as described in Table 1.
# The UPLC effluent was split 4:1, with […] of the total flow introduced to the mass spectrometer for mass spectral analysis and the remaining flow used for radioactivity detection.
# For off‐line radioactivity detection, the eluant was collected into 96‐well Lumaplate (Packard Instrument Co) microplates using a Collect Pal fraction collector (Leap Technologies) with a collection time of 10 seconds per well. The LumaPlates were sealed after drying and counted for 10–50 min per well on a Packard Topcount microplate scintillation counter. The structural characterization of metabolites was carried out using the above UPLC profiling method coupled to a two‐channel Z‐spray (LockSprayTM) time‐of‐flight mass spectrometer (Synapt MS). Leucine enkephalin was used as the mass reference standard for exact mass measurements and was delivered via the second spray channel at a flow rate of 5 μL/minute. The mass spectrometer was operated at a resolution of ~10 000 m/ΔmFWHM with spectra being collected from 100 to 1000 amu. The ionization technique employed was positive electrospray. The sprayer voltage was kept at 3100 V and the sampling cone voltage was kept at a potential of 20 V. For the time‐of‐flight MS/MS experiments, trap energies of 25 to 45 eV and transfer energy of 15 eV were used with argon as the collision gas.
# All radioactivity data were transferred to Laura software (version 4.2.2.24, Lab Logic Ltd, UK) to generate and integrate radio‐chromatograms. Radioactive peaks for quantitative analysis were manually selected from the plots. The radioactivity in the region encompassing the beginning and end of the peak was summed. All further calculations were based on radioactivity.
# The percent of radioactivity (%RA) in a particular peak, Z, was calculated as follows in Equation (1): (1) %RAinZ=DPMin PeakZ/totalDPMinallintegrated peaksx100
# The concentration or amount of each component was calculated as % RA (expressed as a fraction) multiplied by the total concentration of radioactivity in plasma, or the percent of dose in the excreta.
# [2] = test system: A375 (BRAF V600E) melanoma cell proliferation; set-up: method as in data on file; settings: fraction of encorafenib potency; ref data on file; cited from earlier work
# [3] = set-up: method as in data on file; settings: ref data on file; cited from earlier work
Structure (SMILES),Mean (range) Circulating Radioactivity in Plasma Based on AUC0-24 [1],Mean (range) Circulating Radioactivity in Plasma Based on AUC0-24 (%) [1],Potency relative to encorafenib against A375 cell proliferation [2],In vitro safety pharmacology result [3]
CC(C)n1cc(-c2ccnc(N)n2)c(-c2cc(Cl)cc(NS(C)(=O)=O)c2F)n1 [M42.5A],2430 (1740–3320) ngEq/mL*h,15.5 (13.4–17.4) %,approximately 1/30,no significant safety signal
CC(O)CNc1nccc(-c2cn(C(C)C)nc2-c2cc(Cl)cc(NS(C)(=O)=O)c2F)n1 (stereo not drawn) [M44],806 (525–1250) ngEq/mL*h,5.09 (4.02–6.36) %,–,–
